In patent US12378224B2 (Dong-A Socio Holdings Co., Ltd., priority 2016, dated 2025):

Molecular target: human MER (528-end) (Homo sapiens (Human), UniProt Q12866)
Assay: HTRF Kinase Activity Biochemical Assay (KinEASE-TK)
Settings: 10 uM ATP
Outline: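 Activity read-out is the HTRF ratio (665 nm over 620 nm emission, ×10,000; excitation 340 nm) after 1 h detection with 0.375 nM Eu3+-cryptate anti-TK antibody plus 0.062 uM SA-XL665. Preceding kinase step: human MER (528-end), biotinylated TK substrate, 1 h, room temperature.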

Chain of human MER (528-end) (Q12866 528-999 limits assumed): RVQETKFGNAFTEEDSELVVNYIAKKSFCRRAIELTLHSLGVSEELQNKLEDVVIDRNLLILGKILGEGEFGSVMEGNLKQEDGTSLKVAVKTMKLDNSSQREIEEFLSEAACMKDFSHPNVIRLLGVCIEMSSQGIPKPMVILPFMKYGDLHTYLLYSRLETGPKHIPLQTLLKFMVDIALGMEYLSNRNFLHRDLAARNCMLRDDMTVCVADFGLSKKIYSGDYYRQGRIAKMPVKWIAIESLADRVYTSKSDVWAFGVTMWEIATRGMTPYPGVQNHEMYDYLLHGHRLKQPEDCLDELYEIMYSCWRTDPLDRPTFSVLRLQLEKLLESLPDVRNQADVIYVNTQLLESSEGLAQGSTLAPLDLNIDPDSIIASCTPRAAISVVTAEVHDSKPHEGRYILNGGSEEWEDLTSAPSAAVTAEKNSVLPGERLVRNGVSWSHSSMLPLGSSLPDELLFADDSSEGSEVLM

Structure (SMILES)	IC50 [nM]
Cn1cc(-c2cnc(N)c(C(=O)N[C@@H]3CCN(C(=O)N[C@@H]4CCCC[C@@H]4O)C3)c2)cn1 [Example 31, 2-amino-N—((R)-1-(((1R,2S)-2-hydroxycyclohexyl)carbamoyl)pyrrolidin-3-yl)-5-(1-methyl-1H-pyrazol-4-yl)nicotinamide]	> 1000
Cn1cc(-c2cnc(N)c(C(=O)N[C@@H]3CCN(C(=O)c4ccc(-c5cc(Cl)ccc5Cl)cc4)C3)c2)cn1 [Example 367, (R)-2-amino-N-(1-(2′,5′-dichloro-[1,1′-biphenyl]-4-carbonyl)pyrrolidin-3-yl)-5-(1-methyl-1H-pyrazol-4-yl)nicotinamide]	10 to 100
Cn1cc(-c2cnc(N)c(C(=O)N[C@@H]3CCN(C(=O)c4cc5ccccc5o4)C3)c2)cn1 [Example 401, (R)-2-amino-N-(1-(benzofuran-2-carbonyl)pyrrolidin-3-yl)-5-(1-methyl-1H-pyrazol-4-yl)nicotinamide]	> 1000
CCOC(=O)c1csc(N2CC[C@@H](NC(=O)c3cc(-c4cnn(C)c4)cnc3N)C2)n1 [Example 139, ethyl (R)-2-(3-(2-amino-5-(1-methyl-1H-pyrazol-4-yl)nicotinamido)pyrrolidin-1-yl)thiazole-4-carboxylate]	> 1000
Cn1cc(-c2cnc(N)c(C(=O)N[C@@H]3CCN(Cc4ccc(Cl)c(Cl)c4)C3)c2)cn1 [Example 213, (R)-2-amino-N-(1-(3,4-dichlorobenzyl)pyrrolidin-3-yl)-5-(1-methyl-1H-pyrazol-4-yl)nicotinamide]	> 1000
Cn1cc(-c2cnc(N)c(C(=O)N[C@@H]3CCN(Cc4ccccc4)C3)c2)cn1 [Example 205, (R)-2-amino-N-(1-benzylpyrrolidin-3-yl)-5-(1-methyl-1H-pyrazol-4-yl)nicotinamide]	> 1000
CC(C)Oc1cccc(NC(=O)N2CC[C@@H](NC(=O)c3cc(-c4cnn(C)c4)cnc3N)C2)c1 [Example 16, (R)-2-amino-N-(1-((3-isopropoxyphenyl)carbamoyl)pyrrolidin-3-yl)-5-(1-methyl-1H-pyrazol-4-yl)nicotinamide]	> 1000
CN1CCN(Cc2ccc(-c3ccc(C(=O)N4CC[C@@H](NC(=O)c5cc(-c6cnn(C)c6)cnc5N)C4)cc3)cc2)CC1 [Example 385, (R)-2-amino-5-(1-methyl-1H-pyrazol-4-yl)-N-(1-(4′-((4-methylpiperazin-1-yl)methyl)-[1,1′-biphenyl]-4-carbonyl)pyrrolidin-3-yl)nicotinamide]	10 to 100
Nc1ncc(-c2ccc(S(N)(=O)=O)cc2)cc1C(=O)N[C@@H]1CCN(C(=O)c2ccc(-c3ccccc3Cl)cc2)C1 [Example 575, (R)-2-amino-N-(1-(2′-chloro-[1,1′-biphenyl]-4-carbonyl)pyrrolidin-3-yl)-5-(4-sulfamoylphenyl)nicotinamide]	10 to 100
Cn1cc(-c2cnc(N)c(C(=O)N[C@@H]3CCN(C(=O)c4cc(Br)c(Br)s4)C3)c2)cn1 [Example 407, (R)-2-amino-N-(1-(4,5-dibromothiophene-2-carbonyl)pyrrolidin-3-yl)-5-(1-methyl-1H-pyrazol-4-yl)nicotinamide]	> 1000
Cc1nn(C)cc1-c1cccc(C(=O)N2CC[C@@H](NC(=O)c3cc(-c4cnn(C)c4)cnc3N)C2)c1 [Example 469, (R)-2-amino-N-(1-(3-(1,3-dimethyl-1H-pyrazol-4-yl)benzoyl)pyrrolidin-3-yl)-5-(1-methyl-1H-pyrazol-4-yl)nicotinamide]	> 1000
Cn1cc(-c2cnc(N)c(C(=O)N[C@@H]3CCN(C(=O)Oc4ccc5cc(Br)ccc5c4)C3)c2)cn1 [Example 67, 6-bromonaphthalen-2-yl (R)-3-(2-amino-5-(1-methyl-1H-pyrazol-4-yl)nicotinamido)pyrrolidine-1-carboxylate]	100 to 1000
Cn1cc(-c2cnc(N)c(C(=O)N[C@@H]3CCN(C(=O)c4cccc(Oc5ccccc5)c4)C3)c2)cn1 [Example 412, (R)-2-amino-5-(1-methyl-1H-pyrazol-4-yl)-N-(1-(3-phenoxybenzoyl)pyrrolidin-3-yl)nicotinamide]	> 1000
Cn1cc(-c2cnc(N)c(C(=O)N[C@@H]3CCN(C(=O)c4ccc(-c5ccc(C(C)(C)N6CCNCC6)cc5)cc4)C3)c2)cn1 [Example 384, (R)-2-amino-5-(1-methyl-1H-pyrazol-4-yl)-N-(1-(4′-(2-(piperazin-1-yl)propan-2-yl)-[1,1′-biphenyl]-4-carbonyl)pyrrolidin-3-yl)nicotinamide]	10 to 100
Cn1cc(-c2cnc(N)c(C(=O)N[C@@H]3CCN(Cc4ccccc4Cl)C3)c2)cn1 [Example 208, (R)-2-amino-N-(1-(2-chlorobenzyl)pyrrolidin-3-yl)-5-(1-methyl-1H-pyrazol-4-yl)nicotinamide]	100 to 1000
CC(C)Cn1cc(-c2cnc(N)c(C(=O)N[C@@H]3CCN(Cc4ccccc4Cl)C3)c2)cn1 [Example 632, (R)-2-amino-N-(1-(2-chlorobenzyl)pyrrolidin-3-yl)-5-(1-isobutyl-1H-pyrazol-4-yl)nicotinamide]	100 to 1000

Structure (SMILES)	IC50 [nM]
COc1ccccc1-c1ccc(C(=O)N2CC[C@@H](NC(=O)c3cc(-c4cnn(C)c4)cnc3N)C2)cc1 [Example 354, (R)-2-amino-N-(1-(2′-methoxy-[1,1′-biphenyl]-4-carbonyl)pyrrolidin-3-yl)-5-(1-methyl-1H-pyrazol-4-yl)nicotinamide]	10 to 100
Cn1cc(-c2cnc(N)c(C(=O)N[C@@H]3CCN(C(=O)c4ccc(-c5ccccc5O)cc4)C3)c2)cn1 [Example 375, (R)-2-amino-N-(1-(2′-hydroxy-[1,1′-biphenyl]-4-carbonyl)pyrrolidin-3-yl)-5-(1-methyl-1H-pyrazol-4-yl)nicotinamide]	100 to 1000
Cn1cc(-c2cnc(N)c(C(=O)N[C@@H]3CCN(C(=O)Oc4ccc(Oc5ccc([N+](=O)[O-])cc5)cc4)C3)c2)cn1 [Example 111, 4-(4-nitrophenoxy)phenyl (R)-3-(2-amino-5-(1-methyl-1H-pyrazol-4-yl)nicotinamido)pyrrolidine-1-carboxylate]	> 1000
CC1=C(C(=O)N2CC[C@@H](NC(=O)c3cc(-c4cnn(C)c4)cnc3N)C2)Cc2ccccc21 [Example 497, (R)-2-amino-N-(1-(3-methyl-1H-indene-2-carbonyl)pyrrolidin-3-yl)-5-(1-methyl-1H-pyrazol-4-yl)nicotinamide]	> 1000
Nc1ncc(-c2ccc(CO)cc2)cc1C(=O)N[C@@H]1CCN(C(=O)Oc2cccc(-c3ccccc3)c2)C1 [Example 81, [1,1′-biphenyl]-3-yl (R)-3-(2-amino-5-(4-(hydroxymethyl)phenyl)nicotinamido)pyrrolidine-1-carboxylate]	100 to 1000
CC1(C)[C@H]2CC=C(CN3CC[C@@H](NC(=O)c4cc(-c5cnn(C6CCNCC6)c5)cnc4N)C3)[C@@H]1C2 [Example 170, 2-amino-N—((R)-1-(((1R,5S)-6,6-dimethylbicyclo[3.1.1]hept-2-en-2-yl)methyl)pyrrolidin-3-yl)-5-(1-(piperidin-4-yl)-1H-pyrazol-4-yl)nicotinamide]	> 1000
Cn1cc(-c2cnc(N)c(C(=O)N[C@@H]3CCN(C(=O)c4ccc(-c5cnn(C6CCNCC6)c5)cc4)C3)c2)cn1 [Example 510, (R)-2-amino-5-(1-methyl-1H-pyrazol-4-yl)-N-(1-(4-(1-(piperidin-4-yl)-1H-pyrazol-4-yl)benzoyl)pyrrolidin-3-yl)nicotinamide]	> 1000
Nc1ncc(-c2ccc(F)nc2)cc1C(=O)N[C@@H]1CCN(C(=O)c2ccc(-c3ccccc3)cc2)C1 [Example 560, (R)—N-(1-([1,1′-biphenyl]-4-carbonyl)pyrrolidin-3-yl)-6-amino-6′-fluoro-[3,3′-bipyridine]-5-carboxamide]	100 to 1000
Cn1cc(-c2cnc(N)c(C(=O)N[C@@H]3CCN(C(=O)Oc4cccc(-c5ccc(CNC[C@@H]6CCCN6)cc5)c4)C3)c2)cn1 [Example 312, 4′-(((((S)-pyrrolidin-2-yl)methyl)amino)methyl)-[1,1′-biphenyl]-3-yl (R)-3-(2-amino-5-(1-methyl-1H-pyrazol-4-yl)nicotinamido)pyrrolidine-1-carboxylate]	100 to 1000
Cn1cc(-c2cnc(N)c(C(=O)N[C@@H]3CCN(C(=O)c4ccc(-c5cnn(C6CCCC6)c5)cc4)C3)c2)cn1 [Example 508, (R)-2-amino-N-(1-(4-(1-cyclopentyl-1H-pyrazol-4-yl)benzoyl)pyrrolidin-3-yl)-5-(1-methyl-1H-pyrazol-4-yl)nicotinamide]	> 1000
Cn1cc(-c2cnc(N)c(C(=O)N[C@@H]3CCN(C(=O)Oc4cc([N+](=O)[O-])ccc4N)C3)c2)cn1 [Example 100, 2-amino-5-nitrophenyl (R)-3-(2-amino-5-(1-methyl-1H-pyrazol-4-yl)nicotinamido)pyrrolidine-1-carboxylate]	> 1000
Cn1cc(-c2cnc(N)c(C(=O)N[C@@H]3CCN(C(=O)Oc4cccc(-c5ccc(CO)cc5)c4)C3)c2)cn1 [Example 280, 4′-(hydroxymethyl)-[1,1′-biphenyl]-3-yl (R)-3-(2-amino-5-(1-methyl-1H-pyrazol-4-yl)nicotinamido)pyrrolidine-1-carboxylate]	100 to 1000
Cn1cc(-c2cnc(N)c(C(=O)N[C@@H]3CCN(C(=O)c4ccc(-c5ccc(C(F)(F)F)cc5)cc4)C3)c2)cn1 [Example 371, (R)-2-amino-5-(1-methyl-1H-pyrazol-4-yl)-N-(1-(4′-(trifluoromethyl)-[1,1′-biphenyl]-4-carbonyl)pyrrolidin-3-yl)nicotinamide]	> 1000
Cn1cc(-c2cnc(N)c(C(=O)N[C@@H]3CCN(CC=Cc4ccccc4)C3)c2)cn1 [Example 228, (R)-2-amino-N-(1-cinnamylpyrrolidin-3-yl)-5-(1-methyl-1H-pyrazol-4-yl)nicotinamide]	100 to 1000
Cn1cc(-c2cnc(N)c(C(=O)NC[C@H]3CCCN3C(=O)c3ccc(-c4ccccc4)cc3)c2)cn1 [Example 736, (R)—N-((1-([1,1′-biphenyl]-4-carbonyl)pyrrolidin-2-yl)methyl)-2-amino-5-(1-methyl-1H-pyrazol-4-yl)nicotinamide]	> 1000
